Experimental data reported in ChEMBL document CHEMBL1134903, “Synthesis and SAR of azalide 3,6-ketal aromatic derivatives as potent Gram-positive and Gram-negative antibacterial agents” (Bioorg Med Chem Lett, 2002).
Values after ≈ are worked out from the molar mass of the structure shown.

Experiments:
Assay type in all cases: functional
Escherichia coli = assay: Minimum inhibitory concentration against Escherichia coli
Staphylococcus aureus [1] = assay: Effective dose required to inhibit Staphylococcus aureus intraperitoneal (IP) infection model
Pasteurella multocida = assay: Minimum inhibitory concentration against Pasteurella multocida
Staphylococcus aureus [2] = assay: Minimum inhibitory concentration against Staphylococcus aureus
Staphylococcus aureus [3] = assay: Colony forming units of Staphylococcus aureus intramammary infection (IMI) model was determined at a dose of 15 mg/kg

Compound | MIC (Escherichia coli) | ED50 (Staphylococcus aureus [1]) | MIC (Pasteurella multocida) | MIC (Staphylococcus aureus [2]) | MIC (Staphylococcus aureus [1]) | Log CFU (Staphylococcus aureus [3])
CC[C@H]1OC(=O)[C@H](C)[C@H]2OC3(CCN(Cc4ccncc4)CC3)O[C@](C)(C[C@@H](C)CN[C@H](C)[C@@H](O)[C@]1(C)O)[C@H](O[C@@H]1O[C@H](C)C[C@H](N(C)C)[C@H]1O)[C@H]2C | 0.78 µg/mL (≈ 1.04 µM) | 6.4 mg/kg | 0.03 µg/mL (≈ 0.0401 µM) | 1.56 µg/mL (≈ 2.08 µM) | – | –
CC[C@H]1OC(=O)[C@H](C)[C@H]2OC3(CCN(CCc4ccoc4)CC3)O[C@](C)(C[C@@H](C)CN(C)[C@H](C)[C@@H](O)[C@]1(C)O)[C@H](O[C@@H]1O[C@H](C)C[C@H](N(C)C)[C@H]1O)[C@H]2C | 0.2 µg/mL (≈ 0.261 µM) | – | 0.03 µg/mL (≈ 0.0392 µM) | – | – | –
CC[C@H]1OC(=O)[C@H](C)[C@H]2OC3(CCN(C(=O)c4cccs4)CC3)O[C@](C)(C[C@@H](C)CN(C)[C@H](C)[C@@H](O)[C@]1(C)O)[C@H](O[C@@H]1O[C@H](C)C[C@H](N(C)C)[C@H]1O)[C@H]2C | 1.56 µg/mL (≈ 1.99 µM) | – | 0.05 µg/mL (≈ 0.0639 µM) | – | > 20 µg/mL | –
CC[C@H]1OC(=O)[C@H](C)[C@H]2OC3(CCN(Cc4cccnc4)CC3)O[C@](C)(C[C@@H](C)CN(C)[C@H](C)[C@@H](O)[C@]1(C)O)[C@H](O[C@@H]1O[C@H](C)C[C@H](N(C)C)[C@H]1O)[C@H]2C | 0.39 µg/mL (≈ 0.511 µM) | > 20 mg/kg | 0.03 µg/mL (≈ 0.0393 µM) | 0.78 µg/mL (≈ 1.02 µM) | – | –
CC[C@H]1OC(=O)[C@H](C)[C@H]2OC3(CCN(C(=O)c4ccc(-c5ccccc5)cc4)CC3)O[C@](C)(C[C@@H](C)CN[C@H](C)[C@@H](O)[C@]1(C)O)[C@H](O[C@@H]1O[C@H](C)C[C@H](N(C)C)[C@H]1O)[C@H]2C | 6.25 µg/mL (≈ 7.46 µM) | – | 0.2 µg/mL (≈ 0.239 µM) | 0.78 µg/mL (≈ 0.931 µM) | – | –
CC[C@H]1OC(=O)[C@H](C)[C@H]2OC3(CCN(CCc4ccc(Cl)c(Cl)c4)CC3)O[C@](C)(C[C@@H](C)CN(C)[C@H](C)[C@@H](O)[C@]1(C)O)[C@H](O[C@@H]1O[C@H](C)C[C@H](N(C)C)[C@H]1O)[C@H]2C | 50 µg/mL (≈ 59.2 µM) | – | 0.05 µg/mL (≈ 0.0592 µM) | 0.2 µg/mL (≈ 0.237 µM) | – | –
CC[C@H]1OC(=O)[C@H](C)[C@H]2OC3(CCNCC3)O[C@](C)(C[C@@H](C)CN(C)[C@H](C)[C@@H](O)[C@]1(C)O)[C@H](O[C@@H]1O[C@H](C)C[C@H](N(C)C)[C@H]1O)[C@H]2C | 0.2 µg/mL (≈ 0.298 µM) | – | 0.05 µg/mL (≈ 0.0744 µM) | 6.25 µg/mL (≈ 9.3 µM) | – | –
CC[C@H]1OC(=O)[C@H](C)[C@H]2OC3(CCN(Cc4ccc(-c5ccccc5)cc4)CC3)O[C@](C)(C[C@@H](C)CN(C)[C@H](C)[C@@H](O)[C@]1(C)O)[C@H](O[C@@H]1O[C@H](C)C[C@H](N(C)C)[C@H]1O)[C@H]2C | 1.56 µg/mL (≈ 1.86 µM) | > 20 mg/kg | 0.1 µg/mL (≈ 0.119 µM) | 0.2 µg/mL (≈ 0.239 µM) | – | –
CC[C@H]1OC(=O)[C@H](C)[C@H]2OC3(CCN(CCc4ccnc5ccccc45)CC3)O[C@](C)(C[C@@H](C)CN[C@H](C)[C@@H](O)[C@]1(C)O)[C@H](O[C@@H]1O[C@H](C)C[C@H](N(C)C)[C@H]1O)[C@H]2C | 1.56 µg/mL (≈ 1.92 µM) | > 20 mg/kg | 0.05 µg/mL (≈ 0.0615 µM) | 0.2 µg/mL (≈ 0.246 µM) | – | –
CC[C@H]1OC(=O)[C@H](C)[C@H]2OC3(CCN(CCc4ccccc4OC)CC3)O[C@](C)(C[C@@H](C)CN(C)[C@H](C)[C@@H](O)[C@]1(C)O)[C@H](O[C@@H]1O[C@H](C)C[C@H](N(C)C)[C@H]1O)[C@H]2C | 0.1 µg/mL (≈ 0.124 µM) | > 20 mg/kg | 0.03 µg/mL (≈ 0.0372 µM) | 0.39 µg/mL (≈ 0.484 µM) | – | –
CC[C@H]1OC(=O)[C@H](C)[C@H]2OC3(CCN(C(=O)c4cncc(Cl)c4Cl)CC3)O[C@](C)(C[C@@H](C)CN[C@H](C)[C@@H](O)[C@]1(C)O)[C@H](O[C@@H]1O[C@H](C)C[C@H](N(C)C)[C@H]1O)[C@H]2C | 3.13 µg/mL (≈ 3.76 µM) | > 20 mg/kg | 0.1 µg/mL (≈ 0.12 µM) | 3.13 µg/mL (≈ 3.76 µM) | – | –
CC[C@H]1OC(=O)[C@H](C)[C@H]2OC3(CCN(C(=O)c4cc5ccccc5[nH]4)CC3)O[C@](C)(C[C@@H](C)CN[C@H](C)[C@@H](O)[C@]1(C)O)[C@H](O[C@@H]1O[C@H](C)C[C@H](N(C)C)[C@H]1O)[C@H]2C | 3.13 µg/mL (≈ 3.91 µM) | > 20 mg/kg | 0.1 µg/mL (≈ 0.125 µM) | 0.78 µg/mL (≈ 0.974 µM) | – | –
CC[C@H]1OC(=O)[C@H](C)[C@H]2OC3(CCN(CCc4cccc(OC)c4)CC3)O[C@](C)(C[C@@H](C)CN[C@H](C)[C@@H](O)[C@]1(C)O)[C@H](O[C@@H]1O[C@H](C)C[C@H](N(C)C)[C@H]1O)[C@H]2C | 0.3 µg/mL (≈ 0.379 µM) | – | 0.03 µg/mL (≈ 0.0379 µM) | 0.39 µg/mL (≈ 0.492 µM) | – | –
CC[C@H]1OC(=O)[C@H](C)[C@H]2OC3(CCN(C(=O)c4cnc5ccccc5c4)CC3)O[C@](C)(C[C@@H](C)CN(C)[C@H](C)[C@@H](O)[C@]1(C)O)[C@H](O[C@@H]1O[C@H](C)C[C@H](N(C)C)[C@H]1O)[C@H]2C | 6.25 µg/mL (≈ 7.56 µM) | > 20 mg/kg | 0.1 µg/mL (≈ 0.121 µM) | 0.39 µg/mL (≈ 0.472 µM) | – | –
CC[C@H]1OC(=O)[C@H](C)[C@H]2OC3(CCN(C(=O)c4ccccc4)CC3)O[C@](C)(C[C@@H](C)CN(C)[C@H](C)[C@@H](O)[C@]1(C)O)[C@H](O[C@@H]1O[C@H](C)C[C@H](N(C)C)[C@H]1O)[C@H]2C | 3.13 µg/mL (≈ 4.03 µM) | – | 0.1 µg/mL (≈ 0.129 µM) | – | – | –
CC[C@H]1OC(=O)[C@H](C)[C@H]2OC3(CCN(CCc4ccc(OC)cc4)CC3)O[C@](C)(C[C@@H](C)CN[C@H](C)[C@@H](O)[C@]1(C)O)[C@H](O[C@@H]1O[C@H](C)C[C@H](N(C)C)[C@H]1O)[C@H]2C | 0.2 µg/mL (≈ 0.253 µM) | – | 0.01 µg/mL (≈ 0.0126 µM) | 0.2 µg/mL (≈ 0.253 µM) | – | –
CC[C@H]1OC(=O)[C@H](C)[C@H]2OC3(CCN(CCc4ccnc5ccccc45)CC3)O[C@](C)(C[C@@H](C)CN(C)[C@H](C)[C@@H](O)[C@]1(C)O)[C@H](O[C@@H]1O[C@H](C)C[C@H](N(C)C)[C@H]1O)[C@H]2C | 1.56 µg/mL (≈ 1.89 µM) | > 20 mg/kg | 0.05 µg/mL (≈ 0.0605 µM) | 0.39 µg/mL (≈ 0.472 µM) | – | –
CC[C@H]1OC(=O)[C@H](C)[C@H]2OC3(CCN(C(=O)c4ccco4)CC3)O[C@](C)(C[C@@H](C)CN(C)[C@H](C)[C@@H](O)[C@]1(C)O)[C@H](O[C@@H]1O[C@H](C)C[C@H](N(C)C)[C@H]1O)[C@H]2C | 0.78 µg/mL (≈ 1.02 µM) | > 20 mg/kg | 0.05 µg/mL (≈ 0.0653 µM) | – | – | 3.3
CC[C@H]1OC(=O)[C@H](C)[C@H]2OC3(CCN(CCc4ccccc4)CC3)O[C@](C)(C[C@@H](C)CN[C@H](C)[C@@H](O)[C@]1(C)O)[C@H](O[C@@H]1O[C@H](C)C[C@H](N(C)C)[C@H]1O)[C@H]2C | 0.1 µg/mL (≈ 0.131 µM) | > 20 mg/kg | 0.03 µg/mL (≈ 0.0394 µM) | 0.39 µg/mL (≈ 0.512 µM) | – | –
CC[C@H]1OC(=O)[C@H](C)[C@H]2OC3(CCN(CCc4ccccc4OC)CC3)O[C@](C)(C[C@@H](C)CN[C@H](C)[C@@H](O)[C@]1(C)O)[C@H](O[C@@H]1O[C@H](C)C[C@H](N(C)C)[C@H]1O)[C@H]2C | 0.1 µg/mL (≈ 0.126 µM) | – | 0.03 µg/mL (≈ 0.0379 µM) | 0.39 µg/mL (≈ 0.492 µM) | – | –
CC[C@H]1OC(=O)[C@H](C)[C@H]2OC3(CCN(C(=O)c4occc4C)CC3)O[C@](C)(C[C@@H](C)CN[C@H](C)[C@@H](O)[C@]1(C)O)[C@H](O[C@@H]1O[C@H](C)C[C@H](N(C)C)[C@H]1O)[C@H]2C | 1.56 µg/mL (≈ 2.04 µM) | > 20 mg/kg | 0.1 µg/mL (≈ 0.131 µM) | 0.78 µg/mL (≈ 1.02 µM) | – | –
CC[C@H]1OC(=O)[C@H](C)[C@H]2OC3(CCN(C(=O)c4c[nH]c5ccccc45)CC3)O[C@](C)(C[C@@H](C)CN[C@H](C)[C@@H](O)[C@]1(C)O)[C@H](O[C@@H]1O[C@H](C)C[C@H](N(C)C)[C@H]1O)[C@H]2C | 6.25 µg/mL (≈ 7.8 µM) | 11 mg/kg | 0.1 µg/mL (≈ 0.125 µM) | 0.39 µg/mL (≈ 0.487 µM) | – | –
CC[C@H]1OC(=O)[C@H](C)[C@H]2OC3(CCN(CCc4ccc5ccccc5n4)CC3)O[C@](C)(C[C@@H](C)CN(C)[C@H](C)[C@@H](O)[C@]1(C)O)[C@H](O[C@@H]1O[C@H](C)C[C@H](N(C)C)[C@H]1O)[C@H]2C | 0.78 µg/mL (≈ 0.943 µM) | > 20 mg/kg | 0.03 µg/mL (≈ 0.0363 µM) | 0.39 µg/mL (≈ 0.472 µM) | – | –
CC[C@H]1OC(=O)[C@H](C)[C@H]2OC3(CCN(CCc4cccc(OC)c4)CC3)O[C@](C)(C[C@@H](C)CN(C)[C@H](C)[C@@H](O)[C@]1(C)O)[C@H](O[C@@H]1O[C@H](C)C[C@H](N(C)C)[C@H]1O)[C@H]2C | 0.2 µg/mL (≈ 0.248 µM) | > 20 mg/kg | 0.03 µg/mL (≈ 0.0372 µM) | 0.6 µg/mL (≈ 0.744 µM) | – | –
CC[C@H]1OC(=O)[C@H](C)[C@H]2OC3(CCN(CCc4ccc(C#N)cc4)CC3)O[C@](C)(C[C@@H](C)CN(C)[C@H](C)[C@@H](O)[C@]1(C)O)[C@H](O[C@@H]1O[C@H](C)C[C@H](N(C)C)[C@H]1O)[C@H]2C | 0.39 µg/mL (≈ 0.487 µM) | 22 mg/kg | 0.03 µg/mL (≈ 0.0374 µM) | 0.78 µg/mL (≈ 0.974 µM) | – | –
CC[C@H]1OC(=O)[C@H](C)[C@H]2OC3(CCN(CCc4ccc(Cl)cc4)CC3)O[C@](C)(C[C@@H](C)CN[C@H](C)[C@@H](O)[C@]1(C)O)[C@H](O[C@@H]1O[C@H](C)C[C@H](N(C)C)[C@H]1O)[C@H]2C | 0.2 µg/mL (≈ 0.251 µM) | – | 0.01 µg/mL (≈ 0.0126 µM) | – | – | –
CC[C@H]1OC(=O)[C@H](C)[C@H]2OC3(CCN(CCc4ccc(Cl)c(Cl)c4)CC3)O[C@](C)(C[C@@H](C)CN[C@H](C)[C@@H](O)[C@]1(C)O)[C@H](O[C@@H]1O[C@H](C)C[C@H](N(C)C)[C@H]1O)[C@H]2C | 3.13 µg/mL (≈ 3.77 µM) | – | 0.05 µg/mL (≈ 0.0602 µM) | 0.39 µg/mL (≈ 0.469 µM) | – | –
